How the values were obtained:
[1] = PAMPA test (skin permeability model); conditions: 70% silicone oil-30% IPM membrane, 7 h incubation, 100 μM in 5% DMSO phosphate buffer pH 7, triplicate mean
Experimental: The study was performed in triplicate and the results are presented as mean values. After the PAMPA tests was performed, a HPLC method was used to measure the concentrations of the investigated corticosteroids: the initial concentration–CD(0) in the starting solution, the residual concentration–CD(t) in the donor compartment (7 h after incubation) and the transferred concentration–CA(t) in the acceptor compartment (7 h after incubation). The assay was performed using the previously described HPLC method with mobile phase modification for determination of standard corticosteroids. The mobile phase modification was introduced to achieve complete separation standard corticosteroids peak from DMSO peak, which was used as cosolvent. DMSO was used as cosolvent with the aim of increasing the corticosteroid C-21 esters’ solubility. DMSO is one of the earliest and most widely studied penetration enhancers for transdermal drug delivery systems.
On the basis of the initial (100 μM) and calculated residual and transferred concentrations according to peak area comparison at zero time t0, the retention factors–R and permeability coefficients–logPe of investigated corticosteroids were obtained.
Phosphate buffer (pH = 7) was prepared by dissolving NaH2PO4·H2O (1.167 g) and Na2HPO4·7H2O (3.093 g) in water (1000 mL) with the fixed total concentration of 20 mM. The 5% DMSO solution were prepared dissolving DMSO in phosphate buffer. The corticosteroid solutions were prepared dissolving the investigated corticosteroid standards as well as new synthesized corticosteroid C-21 esters in 5% DMSO solution. […] An aliquot of previously prepared mixture (3.5 mL, 7 mL silicone oil and 3 mL IPM) was transferred into a 10 mL volumetric flask, dissolved and fill up to mark with n-hexane.
Permeation experiments were carried out in hydrophobic PVDF 96-well filter plates (Millipore, Molsheim, France). […] Next, in each well of acceptor plate, 5% DMSO solution (400 μL) was transferred with an automatic pipette and covered by the donor plate, creating a PAMPA sandwich. In each well of the donor plate solutions of the tested corticosteroid in 5% DMSO solution (100 μM, 300 μL) was transferred by the use of an automatic pipette. Each substance was measured in triplicate at iso-pH conditions (the same pH value in donor and receptor compartment). The donor plate was covered to prevent evaporation and the whole system set up to interact with the vibratory mixer. After 7 h, PAMPA sandwich was removed from the mixer and vibration, and using the HPLC method the concentration of the investigated substances in the donor and receptor compartments were determined. The HPLC method used was as previously described but with some necessary modifications. A mobile phase of methanol–water (75:25 v/v) was used for analysis of corticosteroid C-21 esters, while the mobile phase methanol–water (50:50 v/v) was used for the analysis of unesterified corticosteroids to increase their retention time and prevent overlapping with the DMSO peak. Other HPLC parameters were as previously described. The concentrations of each tested corticosteroid in the appropriate time interval in the donor and acceptor compartments were calculated using the method of comparing the peak area of the initial concentration at zero time t0.
The values of permeability coefficients–logPe and retention factors–R of examined corticosteroids were calculated using equations (2) and (3). The retention factor, R can be defined as the mole fraction retained in the membrane and in the microplates (i.e., filters and plate materials): [drawing 1] (2) where CA(t)/CD(0) represents the amount of compound that reached the acceptor compartment after incubation time t (for VA = VD): […]

[2] = set-up: method as in PMID 16789751; conditions: 70% silicone-30% IPM membrane, 7 h; cited from earlier work
[3] = approximate logKp (permeability coefficient through human skin) calculated from logPe by equation (1); conditions: logKp = 1.34 logPe + 0.28, from PAMPA logPe
Text: Ottaviani and coworkers predicted skin permeation of numerous compounds applying a new membrane (70% silicone oil and 30% IPM) in the PAMPA test and presented permeate classifications on the basis of available literature permeability coefficients through human skin, logKp.
The proposed equation for correlation between logKp and logPe for 31 investigated compounds was: […]

For C[C@@H]1C[C@H]2[C@@H]3CCC4=CC(=O)C=C[C@]4(C)[C@@]3(F)[C@@H](O)C[C@]2(C)[C@@]1(O)C(=O)CO [DEX, dexamethasone, reference compound], the “permeation parameter CA(t)/CD(0)” value [1] is listed as 1.3 ± 0.8%, the “retention factor R (membrane retention)” value [1] is listed as 4.2 ± 2.0% and the logPe previously reported [2] is listed as −5.75. For the same compound, the “logKp (approximate, calculated)” value [3] was −7.75.
